The values below are quoted from earlier work in patent US8828946B2, “Composition comprising interleukin-1 receptor antagonist and corticosteroid” (Orthogen AG, priority 2009, dated 2014).

The subject of data set [1] is partial rotator cuff rupture and subacromial constriction with complete shoulder stiffness le. As to conditions: Case IX; numerous injections into the left shoulder (patient history).
The next data set has as its system low facet arthrosis. The conditions noted are these: Case VII; in-patient injections into the low facets (patient history).
Data set [2] has as its system moderate knee osteoarthritis ab degree II-III. As to conditions: Case III; injections into the knee in the past (patient history).
The test system of a further data set is impingement le shoulder. The conditions noted are these: Case IV; previous injections (patient history).
Data set [3] has as its system medial knee osteoarthritis ri degree IV and retropatellar. As to conditions: Case V; injections in the past (patient history).
Data set [4] relates to moderate rhizarthrosis ri. The conditions noted are these: Case II; injections in the past (patient history).

Anakinra: in the data set with osteoarthritis (Anakinra alone), the “effect in the treatment of osteoarthritis and degenerative spinal diseases” value was “does not show any effect”. In addition, in the data set with osteoarthritis (alone, compared to a placebo treatment), the “effect in the treatment of osteoarthritis” value was “did not show any effects”.
For the molecule `C[C@]12CCC(=O)C=C1CC[C@@H]1[C@@H]2C(=O)C[C@@]2(C)[C@H]1CC[C@]2(O)C(=O)CO` [cortisone], the “outcome of previous treatment” value in data set [1] is recorded as “without success”; with low facet arthrosis, “without success”; in data set [2], “unsuccessful”; with impingement le shoulder, “without success”; in data set [3] it was “without clinical success”; in data set [4], “without success”.
For hyaluronic acid, the “outcome of previous treatment” value is “unsuccessful” in data set [2] and “without clinical success” in data set [3].
